{
  "source": "patent US20160271149A1",
  "about": "“[…] COMPOUNDS THAT […] PROTEIN ARGININE […] ACTIVITY FOR REDUCING TUMOR CELL PROLIFERATION” (Epinova Therapeutics Corp., priority 2015, published 2016)",
  "key": {"[1]": {"biological_target": "T1, human PPARα (Homo sapiens, UniProt Q07869)", "T1 sequence (Q07869 1-468)": "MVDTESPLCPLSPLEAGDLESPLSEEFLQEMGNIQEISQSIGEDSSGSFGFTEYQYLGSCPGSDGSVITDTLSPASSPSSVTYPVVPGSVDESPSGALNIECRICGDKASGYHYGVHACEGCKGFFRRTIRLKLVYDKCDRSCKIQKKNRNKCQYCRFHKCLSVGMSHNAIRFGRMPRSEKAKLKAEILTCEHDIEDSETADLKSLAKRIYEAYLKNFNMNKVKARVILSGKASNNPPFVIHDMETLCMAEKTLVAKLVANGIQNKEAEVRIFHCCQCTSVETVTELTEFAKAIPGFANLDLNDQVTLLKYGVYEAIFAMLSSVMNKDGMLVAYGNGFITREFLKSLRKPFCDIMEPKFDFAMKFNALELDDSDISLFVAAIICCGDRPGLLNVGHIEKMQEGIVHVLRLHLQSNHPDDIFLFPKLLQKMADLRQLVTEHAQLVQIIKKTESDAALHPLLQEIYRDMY", "T1 sequence (P19793 1-462 partner)": "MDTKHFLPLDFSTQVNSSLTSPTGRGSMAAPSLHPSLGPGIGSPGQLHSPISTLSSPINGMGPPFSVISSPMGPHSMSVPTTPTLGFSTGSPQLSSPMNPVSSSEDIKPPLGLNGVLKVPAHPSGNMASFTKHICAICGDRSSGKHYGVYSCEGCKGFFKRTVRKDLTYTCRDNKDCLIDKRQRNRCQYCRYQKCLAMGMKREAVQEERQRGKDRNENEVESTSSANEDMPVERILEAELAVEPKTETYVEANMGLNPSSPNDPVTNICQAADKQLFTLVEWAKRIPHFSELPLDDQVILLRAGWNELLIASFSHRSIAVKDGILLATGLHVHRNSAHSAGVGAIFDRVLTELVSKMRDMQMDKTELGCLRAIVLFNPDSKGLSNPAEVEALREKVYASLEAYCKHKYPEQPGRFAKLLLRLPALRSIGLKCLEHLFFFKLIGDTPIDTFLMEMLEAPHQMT", "conditions": "at 1 μM; COS-1 cells, human PPARα and RXRα; cited from earlier work"}, "[2]": {"biological_target": "PRMT1 (Homo sapiens, UniProt Q99873)", "sequence (Q99873 whole entry)": "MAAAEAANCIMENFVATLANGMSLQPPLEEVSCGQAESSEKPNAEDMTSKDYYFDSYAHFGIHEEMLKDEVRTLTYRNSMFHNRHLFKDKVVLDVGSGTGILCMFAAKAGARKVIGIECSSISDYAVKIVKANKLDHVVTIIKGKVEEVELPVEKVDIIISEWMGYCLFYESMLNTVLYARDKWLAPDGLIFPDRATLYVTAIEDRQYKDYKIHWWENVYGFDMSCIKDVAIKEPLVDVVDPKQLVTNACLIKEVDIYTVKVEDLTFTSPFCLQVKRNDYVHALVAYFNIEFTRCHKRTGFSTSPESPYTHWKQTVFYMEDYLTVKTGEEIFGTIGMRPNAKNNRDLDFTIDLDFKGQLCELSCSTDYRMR", "experiment": "Methyltransferase activity screen, PRMT1, substrate Histone H4", "conditions": "single-dose mode, duplicate (Data 1, Data 2), 1 μM SAM, 100 μM", "procedure": "(§1) A 10 mM DMSO stock solution of each test compound was prepared.\n(§2) Compounds were tested in a single-dose mode, in duplicate at the following concentrations.\n(§3) Reactions were carried out at 1 μM SAM. The no inhibitor control was set as 100% activity)."}, "[3]": {"biological_target": "PRMT6 (Homo sapiens, UniProt Q96LA8)", "sequence (Q96LA8 whole entry)": "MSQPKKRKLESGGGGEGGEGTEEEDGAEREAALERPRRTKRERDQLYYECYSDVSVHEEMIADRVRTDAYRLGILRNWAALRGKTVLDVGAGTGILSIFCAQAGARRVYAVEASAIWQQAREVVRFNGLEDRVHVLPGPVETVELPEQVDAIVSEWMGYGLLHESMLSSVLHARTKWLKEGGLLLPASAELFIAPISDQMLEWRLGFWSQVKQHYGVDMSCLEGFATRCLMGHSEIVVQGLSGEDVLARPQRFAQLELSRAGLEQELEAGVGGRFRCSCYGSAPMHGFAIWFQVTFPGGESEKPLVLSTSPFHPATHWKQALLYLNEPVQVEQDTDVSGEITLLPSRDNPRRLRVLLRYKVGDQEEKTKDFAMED", "experiment": "Methyltransferase activity screen, PRMT6, substrate Histone H3", "conditions": "PRMT6; substrate Histone H3; single-dose mode, duplicate (Data 1, Data 2); 1 μM SAM; 100 μM", "procedure": "as §1, §2, §3"}, "[4]": {"biological_target": "PRMT5 (Homo sapiens, UniProt O14744)", "sequence (O14744 whole entry)": "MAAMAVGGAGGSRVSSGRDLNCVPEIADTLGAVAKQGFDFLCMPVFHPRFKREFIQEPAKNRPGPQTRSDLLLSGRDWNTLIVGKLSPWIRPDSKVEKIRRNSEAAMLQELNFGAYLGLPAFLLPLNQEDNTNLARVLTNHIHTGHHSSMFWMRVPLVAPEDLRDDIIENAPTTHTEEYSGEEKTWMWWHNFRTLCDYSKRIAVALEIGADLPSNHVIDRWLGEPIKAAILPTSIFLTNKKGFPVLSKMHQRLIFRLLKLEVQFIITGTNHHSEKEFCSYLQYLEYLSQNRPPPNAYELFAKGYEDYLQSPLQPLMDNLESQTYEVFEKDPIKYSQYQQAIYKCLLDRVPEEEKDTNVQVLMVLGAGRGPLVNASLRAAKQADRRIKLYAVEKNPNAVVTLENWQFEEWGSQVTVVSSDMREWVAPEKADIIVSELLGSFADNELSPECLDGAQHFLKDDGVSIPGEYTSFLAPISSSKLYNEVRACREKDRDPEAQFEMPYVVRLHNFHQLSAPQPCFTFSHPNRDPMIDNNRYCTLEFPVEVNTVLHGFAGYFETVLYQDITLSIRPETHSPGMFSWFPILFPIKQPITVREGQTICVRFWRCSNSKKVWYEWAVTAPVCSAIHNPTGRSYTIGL", "experiment": "Methyltransferase activity screen, PRMT5, substrate Histone H2A", "procedure": "as §1, §2, §3"}, "[5]": {"biological_target": "PRMT5/MEP50 (Homo sapiens, UniProt O14744)", "sequence (O14744 whole entry)": "as above", "sequence (Q9BQA1 whole entry partner)": "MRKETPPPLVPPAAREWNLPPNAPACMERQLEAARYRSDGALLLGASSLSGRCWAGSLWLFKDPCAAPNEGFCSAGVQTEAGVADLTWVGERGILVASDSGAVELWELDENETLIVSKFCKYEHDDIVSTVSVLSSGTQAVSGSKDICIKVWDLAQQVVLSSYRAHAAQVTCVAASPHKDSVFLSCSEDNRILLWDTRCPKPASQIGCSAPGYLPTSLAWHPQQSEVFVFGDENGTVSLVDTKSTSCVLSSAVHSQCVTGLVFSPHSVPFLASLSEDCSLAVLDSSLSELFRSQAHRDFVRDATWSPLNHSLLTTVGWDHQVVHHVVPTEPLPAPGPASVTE", "experiment": "Methyltransferase activity screen and profiling, PRMT5/MEP50, substrate Histone H2A", "conditions": "PRMT5/MEP50; substrate Histone H2A; single-dose mode, duplicate (Data 1, Data 2); 1 μM SAM; 100 μM", "procedure": "as §1, §2, §3"}, "[6]": {"tested_on": "PRMTs", "experiment": "Screen against protein arginine methyltransferases, summary statement", "procedure": "as §1, §2, §3"}},
  "note": "Where “and” joins values, the source holds several entries; their conditions need not be identical. Identical values can stand only once.",
  "data": [
    {"compound": "CCc1ccc(CCOc2ccc(CC3SC(=O)NC3=O)cc2)nc1", "note": "(stereo not shown) [Pioglitazone, 5-[[4-[2-(5-ethyl-2-pyridinyl)ethoxy]phenyl]methyl]-2,4-thiazolidinedione]", "values": [
      {"measurement": "activation of PPARα", "setting": "[1]", "value": "low level activation"},
      {"measurement": "% Enzyme Activity (relative to DMSO controls)", "setting": "[2]", "value": "110.44% and 99.23%"},
      {"measurement": "% Enzyme Activity (relative to DMSO controls)", "setting": "[3]", "value": "93.46% and 102.78%"},
      {"measurement": "% Enzyme Activity (relative to DMSO controls)", "setting": "[4]; PRMT5, substrate Histone H2A, single-dose mode, duplicate (Data 1, Data 2), 1 μM SAM, 100 μM", "value": "18.95% and 18.46%"},
      {"measurement": "inhibition of PRMT5", "setting": "[4]; at a concentration of 100 μM", "value": "mild inhibitor"},
      {"measurement": "% Enzyme Activity (relative to DMSO controls)", "setting": "[5]", "value": "43.68% and 45.13%"}
    ]},
    {"compound": "C[C@H](CCC(=O)O)[C@H]1CC[C@H]2[C@@H]3[C@H](O)C[C@@H]4C[C@H](O)CC[C@]4(C)[C@H]3CC[C@]12C", "note": "[Chenodeoxycholic acid, 3α, 7α-dihydroxy-5β-cholan-24-oic acid]", "values": [
      {"measurement": "direct inhibitory effect on PRMTs", "setting": "[6]", "value": "no direct inhibitory effect"}
    ]}
  ]
}
